# Experimental data: publication PMC10853903 (Analytical Chemistry, 2024)
# Biological target: agglutinin 120 from Ricinus communis (RCA120) (Ricinus communis, UniProt P06750)
# Test: biochemical
# Type: binding
smiles,measurement,value
CO[C@@H]1O[C@H](CO)[C@H](O)[C@H](O)[C@H]1O [methyl-β-D-galactoside],Kd,271 µM
